Assay results taken from PMC9687610, “Adenosine-Mimicking Derivatives of 3-Aminopyrazine-2-Carboxamide: Towards Inhibitors of Prolyl-tRNA Synthetase with Antimycobacterial Activity” (Biomolecules, 2022).
≈ marks a conversion by molar mass, not a printed value. Read-outs that look alike come from different tables or passages of the source.

What was measured:
[1] = test system: HepG2 human hepatocellular carcinoma cells; experiment: In vitro HepG2 cytotoxicity (CellTiter 96); conditions: for IC50: * limit = highest evaluated concentration (precipitation in medium), ** over the 1000 µM limit
[2] = test system: Mycobacterium smegmatis DSM 43465 (ATCC 607); experiment: Microplate Alamar Blue Assay (MABA), M. smegmatis; type: cell-based; conditions: Mycolicibacterium smegmatis, read-out: M. smegmatis MIC
[3] = test system: Enterococcus faecalis CCM 4224 (ATCC 29212); experiment: Antibacterial microdilution broth (EUCAST), EF; type: cell-based; conditions: Enterococcus faecalis; read after 24 h; read-out: EF MIC
[4] = test system: Lichtheimia corymbifera CCM 8077; experiment: Antifungal microdilution broth (EUCAST), LC; type: cell-based; conditions: Lichtheimia corymbifera, CCM8077; read after 24 h; read-out: LC MIC
[5] = test system: Klebsiella pneumoniae CCM 4415 (ATCC 10031); experiment: Antibacterial microdilution broth (EUCAST), KP; conditions: read after 24 h
[6] = test system: Mycobacterium tuberculosis H37Ra ITM-M006710 (ATCC 9431); experiment: Microplate Alamar Blue Assay (MABA), Mtb H37Ra; type: cell-based; conditions: Mycobacterium tuberculosis, 120 h, pH 6.6, MABA, Middlebrook 7H9 broth pH 6.6, resazurin after 120 h; read-out: Mtb H37Ra MIC
[7] = test system: Trichophyton interdigitale CCM 8377 (ATCC 9533); experiment: Antifungal microdilution broth (EUCAST), TI; type: cell-based; conditions: Trichophyton interdigitale, 72 h, read-out: TI MIC
[8] = test system: Aspergillus flavus CCM 8363; experiment: Antifungal microdilution broth (EUCAST), AFla; type: cell-based; conditions: Aspergillus flavus, CCM8363; read after 24 h; read-out: AFla MIC
[9] = test system: Escherichia coli CCM 3954 (ATCC 25922); experiment: Antibacterial microdilution broth (EUCAST), EC; type: cell-based; conditions: Escherichia coli; read after 24 h; read-out: EC MIC
[10] = test system: M. aurum DSM 43999 (ATCC 23366); experiment: Microplate Alamar Blue Assay (MABA), M. aurum; type: cell-based; conditions: Mycolicibacterium aurum, read-out: M. aurum MIC
[11] = test system: Candida albicans CCM 8320 (ATCC 24433); experiment: Antifungal microdilution broth (EUCAST), CA; type: cell-based; conditions: Candida albicans; read after 24 h; read-out: CA MIC
[12] = test system: Candida tropicalis CCM 8264 (ATCC 750); experiment: Antifungal microdilution broth (EUCAST), CT; type: cell-based; conditions: Candida tropicalis; read after 24 h; read-out: CT MIC
[13] = test system: Candida krusei CCM 8271 (ATCC 6258); experiment: Antifungal microdilution broth (EUCAST), CK; type: cell-based; conditions: Pichia kudriavzevii; read after 24 h; read-out: CK MIC
[14] = test system: Staphylococcus aureus subsp. aureus methicillin-resistant (MRSA) CCM 4750 (ATCC 43300); experiment: Antibacterial microdilution broth (EUCAST), MRSA; type: cell-based; conditions: Staphylococcus aureus; read after 24 h; read-out: MRSA MIC
[15] = test system: Staphylococcus aureus subsp. aureus CCM 4223 (ATCC 29213); experiment: Antibacterial microdilution broth (EUCAST), SA; type: cell-based; conditions: Staphylococcus aureus; read after 24 h; read-out: SA MIC
[16] = test system: Candida parapsilosis CCM 8260 (ATCC 22019); experiment: Antifungal microdilution broth (EUCAST), CP; type: cell-based; conditions: Lodderomyces parapsilosis; read after 24 h; read-out: CP MIC
[17] = test system: Aspergillus fumigatus ATCC 204305; experiment: Antifungal microdilution broth (EUCAST), AF; type: cell-based; conditions: Aspergillus fumigatus, ATCC204305; read after 24 h; read-out: AF MIC
[18] = test system: Acinetobacter baumannii DSM 30007 (ATCC 19606); experiment: Antibacterial microdilution broth (EUCAST), ACI; type: cell-based; conditions: Acinetobacter baumannii; read after 24 h; read-out: ACI MIC
[19] = test system: Pseudomonas aeruginosa CCM 3955 (ATCC 27853); experiment: Antibacterial microdilution broth (EUCAST), PA; type: cell-based; conditions: Pseudomonas aeruginosa; read after 24 h; read-out: PA MIC
[20] = test system: Staphylococcus epidermidis CCM 4418 (ATCC 12228); experiment: Antibacterial microdilution broth (EUCAST), SE; type: cell-based; conditions: read after 24 h, read-out: SE MIC
[21] = Homo sapiens, HepG2, 24 h, read-out: HepG2 IC50, 24 h incubation

Structure (SMILES) | IC50 [1, 21] [µM] | melting point [°C] | MIC ([2]; MABA, resazurin after 48 h) [µg/mL] | MIC [3] [µM] | MIC [4] [µM] | KP MIC [5] [µM] | MIC [6] [µg/mL] | MIC [7] [µM] | MIC [8] [µM] | MIC [9] [µM] | MIC [11] [µM] | MIC [12] [µM] | MIC [13] [µM] | MIC [14] [µM] | MIC [15] [µM] | MIC [16] [µM] | MIC [17] [µM] | MIC [18] [µM] | MIC [19] [µM] | MIC [20] [µM] | also measured
CNC(=O)c1nccnc1NC(=O)c1ccc(C)cc1 [Compound 33] | 765 | 178.4 to 179.5 | ≥ 500 | > 500 | > 500 | > 500 | 250 (≈ 925 µM) | > 500 | > 500 | > 500 | > 500 | > 500 | > 500 | > 500 | > 500 | > 500 | > 500 | > 500 | > 500 | > 500 | IC50 ([1]; read-out: HepG2 IC50, 24 h incubation): 764 µM; MIC ([10]; MABA, resazurin after 72 h): 125 µg/mL (≈ 462 µM)
NC(=O)c1nccnc1NC(=O)c1ccccc1F [Compound 10] | 556 | 211 to 213 | ≥ 500 | > 500 | > 500 | > 500 | 250 (≈ 961 µM) | > 500 | > 500 | > 500 | > 500 | > 500 | > 500 | > 500 | > 500 | > 500 | > 500 | > 500 | > 500 | > 500 | MIC ([10]; MABA, resazurin after 72 h): ≥ 500 µg/mL
CCCCCCC(=O)Nc1nccnc1C(N)=O [Compound 31] | > 250 | 131.5 to 132.1 | ≥ 500 | > 125 | > 125 | > 125 | ≥ 500 | > 125 | > 125 | > 125 | > 125 | > 125 | > 125 | > 125 | > 125 | > 125 | > 125 | > 125 | > 125 | > 125 | MIC ([10]; MABA, resazurin after 72 h): ≥ 500 µg/mL
NC(=O)c1nccnc1NC(=O)c1ccccc1Br [Compound 16] | > 500 | 223.1 to 225.1 | ≥ 250 | > 500 | > 500 | > 500 | ≥ 250 | > 500 | > 500 | > 500 | > 500 | > 500 | > 500 | > 500 | > 500 | > 500 | > 500 | > 500 | > 500 | > 500 | MIC ([10]; MABA, resazurin after 72 h): ≥ 250 µg/mL
NC(=O)c1nccnc1NC(=O)c1cccc(F)c1 [Compound 11] | > 50 | 234.1 to 236 |  | > 250 | > 250 | > 250 | ≥ 125 | > 250 | > 250 | > 250 | > 250 | > 250 | > 250 | > 250 | > 250 | > 250 | > 250 | > 250 | > 250 | > 250 | solubility in the testing medium (in words) ([1]; HepG2 cell culture medium): low solubility; MIC ([2]; 48 h): ≥ 125 µg/mL; MIC ([10]; 72 h): ≥ 125 µg/mL
Cc1ccccc1C(=O)Nc1nccnc1C(N)=O [Compound 2] | 422 | 234.4 to 235.9 | ≥ 500 | > 500 | > 125 | > 500 | ≥ 500 | > 125 | > 125 | > 500 | > 125 | > 125 | > 125 | > 500 | > 500 | > 125 | > 125 | > 500 | > 500 | > 500 | MIC ([10]; MABA, resazurin after 72 h): ≥ 500 µg/mL
